Legend:
[1] = biological target: NAMPT (human, recombinant, C-terminally His-tagged) (Homo sapiens, UniProt P43490); assay: Time-Resolved Fluorescence Resonance Energy Transfer (TR-FRET) Binding Assay of NAMPT; details: without substrates; 6.8 nM NAMPT, 200 nM probe, 3 hours equilibration
Procedure, shortened: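 Compounds, diluted in half-log steps, are mixed with enzyme (6.8 nM), fluorescent probe (200 nM) and Tb-anti-His antibody (1 nM) in pH 7.5 HEPES buffer containing 10 mM MgCl2 and 1 mM DTT. Plates equilibrate 3 h at room temperature; normalized FRET ratios are fitted by four-parameter logistic regression for IC50.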

NAMPT = NAMPT (Homo sapiens, UniProt P43490); assay: TR-FRET Binding Assay of NAMPT with PRPP; details: with 200 μM PRPP and 2.5 mM ATP; 2 nM NAMPT, 2 nM probe, 16 hours equilibration
Procedure, shortened: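 Compounds were mixed with 2 nM His-tagged NAMPT, 2 nM probe, 1 nM terbium anti-His antibody, 200 μM PRPP and 2.5 mM ATP in assay buffer with 2% DMSO, then left 16 hours to permit possible enzymatic processing of compounds before time-resolved FRET was measured.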

PC3 cells = assay: NAMPT Cell Proliferation Assay; format: cell-based; details: Homo sapiens, PC-3, 120 h, 5 days incubation, cell viability by Cell Titer Glo
Procedure, shortened: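 Proliferation of PC3 cells treated 5 days with a 10-fold compound series (top 10 μM) was quantified by Cell Titer Glo luminescence; IC50s were fitted from percent inhibition.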

activated T cells = details: Busso et al. 2008; cited from earlier work
[2] = test system: collagen induced arthritis; details: Busso et al. 2008; cited from earlier work
[3] = test system: experimental autoimmune encephalomyelitis (EAE); details: model of T-cell mediated autoimmune disorders, Bruzzone et al. 2009; cited from earlier work

Chain of NAMPT (P43490 whole entry): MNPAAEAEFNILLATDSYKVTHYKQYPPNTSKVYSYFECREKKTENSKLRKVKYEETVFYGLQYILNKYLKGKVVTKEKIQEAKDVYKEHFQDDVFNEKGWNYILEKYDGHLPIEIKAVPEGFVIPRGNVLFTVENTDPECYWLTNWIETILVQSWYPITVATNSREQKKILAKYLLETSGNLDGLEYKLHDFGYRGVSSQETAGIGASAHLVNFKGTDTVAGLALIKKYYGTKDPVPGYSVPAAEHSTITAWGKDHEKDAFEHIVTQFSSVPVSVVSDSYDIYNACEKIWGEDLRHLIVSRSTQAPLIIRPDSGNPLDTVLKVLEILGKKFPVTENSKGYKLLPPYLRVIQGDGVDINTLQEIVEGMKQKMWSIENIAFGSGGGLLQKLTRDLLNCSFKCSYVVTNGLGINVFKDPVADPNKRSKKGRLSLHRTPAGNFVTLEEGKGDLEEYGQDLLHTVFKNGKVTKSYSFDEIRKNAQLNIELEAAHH
Chain of NAMPT (human, recombinant, C-terminally His-tagged) (P43490 whole entry): as above

SMILES | IC50 [1] [nM] | IC50 (NAMPT) [nM] | IC50 (PC3 cells) [nM] | apoptosis of activated T cells (activated T cells) | proliferation of activated T cells (activated T cells) | efficacy in animal models of arthritis [2] | manifestations of experimental autoimmune encephalomyelitis [3]
O=C(NCc1ccn2ccnc2c1)c1cnc(C2CCN(C(=O)c3ccccc3F)C2)s1 (stereo not shown) [Example 804, 2-[1-(2-fluorobenzoyl)pyrrolidin-3-yl]-N-(imidazo[1,2-a]pyridin-7-ylmethyl)-1,3-thiazole-5-carboxamide] | 289 | 0.445 | 49.7 |  |  |  | 
CC(C)C(=O)N1CCC(c2ncc(C(=O)NCc3ccn4ccnc4c3)s2)C1 (stereo not shown) [Example 805, N-(imidazo[1,2-a]pyridin-7-ylmethyl)-2-[1-(2-methylpropanoyl)pyrrolidin-3-yl]-1,3-thiazole-5-carboxamide] | 3920 | 1.12 | 7820 |  |  |  | 
CC(C)CC(=O)N1CCC(c2ncc(C(=O)NCc3ccn4ccnc4c3)s2)C1 (stereo not shown) [Example 806, N-(imidazo[1,2-a]pyridin-7-ylmethyl)-2-[1-(3-methylbutanoyl)pyrrolidin-3-yl]-1,3-thiazole-5-carboxamide] | 2740 | 0.543 | 1400 |  |  |  | 
O=C(NCc1ccn2ccnc2c1)c1cnc(C2CCN(C(=O)c3ccccc3)C2)s1 (stereo not shown) [Example 807, 2-(1-benzoylpyrrolidin-3-yl)-N-(imidazo[1,2-a]pyridin-7-ylmethyl)-1,3-thiazole-5-carboxamide] | 628 | 0.509 | 100 |  |  |  | 
CC(C)(C)OC(=O)N1CCN(CCn2cc(-c3ccc(C(=O)NCc4ccn5ccnc5c4)s3)cn2)CC1 [Example 808, tert-butyl 4-[2-(4-{5-[(imidazo[1,2-a]pyridin-7-ylmethyl)carbamoyl]thiophen-2-yl}-1H-pyrazol-1-yl)ethyl]piperazine-1-carboxylate] | 94.4 | 0.568 | 1.1 |  |  |  | 
O=C(NCc1ccn2ccnc2c1)c1ccc(-c2cnn(CCN3CCNCC3)c2)s1 [Example 809, N-(imidazo[1,2-a]pyridin-7-ylmethyl)-5-{1-[2-(piperazin-1-yl)ethyl]-1H-pyrazol-4-yl}thiophene-2-carboxamide] | 95.3 | 0.63 | 33.2 |  |  |  | 
O=C(NCc1ccc2ncnn2c1)c1ccc(-c2cnn(CC3(F)CCOCC3)c2)o1 [Example 810, 5-{1-[(4-fluorotetrahydro-2H-pyran-4-yl)methyl]-1H-pyrazol-4-yl}-N-([1,2,4]triazolo[1,5-a]pyridin-6-ylmethyl)furan-2-carboxamide] | 481 | 12.6 | 327 |  |  |  | 
CC(C)C(=O)N1CCC(c2ccc(C(=O)NCc3cn4ccnc4cn3)cc2)CC1 [Example 811, N-(imidazo[1,2-a]pyrazin-6-ylmethyl)-4-[1-(2-methylpropanoyl)piperidin-4-yl]benzamide] | 99.8 | 2.86 | 11.4 |  |  |  | 
O=C(NCc1cn2ccnc2cn1)c1ccc(C2CCN(C(=O)c3ccc(F)cc3)CC2)cc1 [Example 812, 4-[1-(4-fluorobenzoyl)piperidin-4-yl]-N-(imidazo[1,2-a]pyrazin-6-ylmethyl)benzamide] | 80 | 2.57 | 38.8 |  |  |  | 
O=C(NCc1cn2ccnc2cn1)c1ccc(C2CCN(C(=O)c3cc(F)ccc3F)CC2)cc1 [Example 813, 4-[1-(2,5-difluorobenzoyl)piperidin-4-yl]-N-(imidazo[1,2-a]pyrazin-6-ylmethyl)benzamide] | 11.2 | 1.53 | 2.21 |  |  |  | 
CC1(C(=O)N2CCC(c3ccc(C(=O)NCc4cn5ccnc5cn4)cc3)CC2)CC1 [Example 814, N-(imidazo[1,2-a]pyrazin-6-ylmethyl)-4-{1-[(1-methylcyclopropyl)carbonyl]piperidin-4-yl}benzamide] | 68.7 | 1.63 | 4.5 |  |  |  | 
O=C(NCc1cn2ccnc2cn1)c1ccc(C2CCN(C(=O)CC(F)(F)F)CC2)cc1 [Example 815, N-(imidazo[1,2-a]pyrazin-6-ylmethyl)-4-[1-(3,3,3-trifluoropropanoyl)piperidin-4-yl]benzamide] | 53 | 1.93 | 5.89 |  |  |  | 
CC(C)CC(=O)N1CCC(c2ccc(C(=O)NCc3cn4ccnc4cn3)cc2)CC1 [Example 816, N-(imidazo[1,2-a]pyrazin-6-ylmethyl)-4-[1-(3-methylbutanoyl)piperidin-4-yl]benzamide] | 46.1 | 1.58 | 4.82 |  |  |  | 
CC(C)S(=O)(=O)N1CCC(c2ccc(C(=O)NCc3cn4ccnc4cn3)cc2)CC1 [Example 817, N-(imidazo[1,2-a]pyrazin-6-ylmethyl)-4-[1-(propan-2-ylsulfonyl)piperidin-4-yl]benzamide] | 65.8 | 1.6 | 9.27 |  |  |  | 
CC(C)Cn1nccc1-c1ccc(C(=O)NCc2ccn3ccnc3c2)o1 [Example 818, N-(imidazo[1,2-a]pyridin-7-ylmethyl)-5-[1-(2-methylpropyl)-1H-pyrazol-5-yl]furan-2-carboxamide] | 1520 | 0.644 | 716 |  |  |  | 
CC(C)Cn1cc(-c2ccc(C(=O)NCc3cn4ccnc4cn3)o2)cn1 [Example 819, N-(imidazo[1,2-a]pyrazin-6-ylmethyl)-5-[1-(2-methylpropyl)-1H-pyrazol-4-yl]furan-2-carboxamide] | 19.9 | 0.624 | 13 |  |  |  | 
CC(C)Cn1cc(-c2ccc(C(=O)NCc3ccc4ncnn4c3)o2)cn1 [Example 820, 5-[1-(2-methylpropyl)-1H-pyrazol-4-yl]-N-([1,2,4]triazolo[1,5-a]pyridin-6-ylmethyl)furan-2-carboxamide] | 499 | 9.28 | 802 |  |  |  | 
CC(C)CCn1nccc1-c1ccc(C(=O)NCc2ccn3ccnc3c2)o1 [Example 821, N-(imidazo[1,2-a]pyridin-7-ylmethyl)-5-[1-(3-methylbutyl)-1H-pyrazol-5-yl]furan-2-carboxamide] | 663 | 0.284 | 192 |  |  |  | 
CC1(Cn2cc(-c3ccc(C(=O)NCc4ccc5ncnn5c4)o3)cn2)CCOCC1 [Example 822, 5-{1-[(4-methyltetrahydro-2H-pyran-4-yl)methyl]-1H-pyrazol-4-yl}-N-([1,2,4]triazolo[1,5-a]pyridin-6-ylmethyl)furan-2-carboxamide] | 104 | 3.46 | 71.1 |  |  |  | 
COC[C@H]1CCCN1C(=O)c1ccc(C(=O)NCc2ccn3ccnc3c2)s1 [Example 823, N-(imidazo[1,2-a]pyridin-7-ylmethyl)-5-{[(2R)-2-(methoxymethyl)pyrrolidin-1-yl]carbonyl}thiophene-2-carboxamide] | 189 | 0.356 | 4.62 |  |  |  | 
CC(C)CC1CCCN1C(=O)c1ccc(C(=O)NCc2ccn3ccnc3c2)s1 (stereo not shown) [Example 824, N-(imidazo[1,2-a]pyridin-7-ylmethyl)-5-{[2-(2-methylpropyl)pyrrolidin-1-yl]carbonyl}thiophene-2-carboxamide] | 118 | 0.566 | 12.4 |  |  |  | 
CC(C)(C)Cn1cc(-c2ccc(C(=O)NCc3ccn4ccnc4c3)o2)cn1 [Example 825, 5-[1-(2,2-dimethylpropyl)-1H-pyrazol-4-yl]-N-(imidazo[1,2-a]pyridin-7-ylmethyl)furan-2-carboxamide] | 26.1 | 0.538 | 1.06 |  |  |  | 
O=C(NCc1cn2ccnc2cn1)c1ccc(C2CCN(C(=O)c3ccccc3F)CC2)cc1 [Example 826, 4-[1-(2-fluorobenzoyl)piperidin-4-yl]-N-(imidazo[1,2-a]pyrazin-6-ylmethyl)benzamide] | 7.79 | 0.897 | 6.79 |  |  |  | 
O=C(/C=C/c1cccnc1)NCCCCC1CCN(C(=O)c2ccccc2)CC1 [FK866] |  |  |  | induce apoptosis | selectively block proliferation | efficacious | ameliorated the manifestations

Source: patent publication US9187472B2 (AbbVie Inc., priority 2012, dated 2015)
